“Also recorded” adds a separate entry of the source. Marks after values point to notes of the source that are not given here.
Tests used:
[1] = system: memory/learning dysfunctions in the passive avoidance response; test: Passive avoidance response test, drug administered alone without MK-801; format: in vivo, Wistar male rats; settings: drug alone without MK-801, passive avoidance response, rats
Description: Then, 10 seconds later, a slide door set at the border between the dark box and the light box was opened. Due to the habits of the rats, once the rats entered into the dark box, the slide door was quickly closed. At three seconds after entering into the dark box, an electroconvulsive shock ([…], for 3 seconds) was given to the rats. The period between the time just after the slide door was opened and the time at which the rats entered into the dark box was measured as a step-through latency. […] On Day 2 of the experiment, the testing session was carried out about 24 hours after the training session. […] The procedures of the testing session were carried out in the same manner to the training session except that no electroconvulsive shock was given. The step-through latency at the testing session was measured up to 300 seconds, and the step-through latency over 300 seconds was regarded as 300 seconds. […] The statistical analysis of the % of animals avoiding was done by x^2 test with Bonferroni's correction. The animals were used in a group of 10 to 25 animals per group, and the data was expressed by percentage.

[2] = system: MK-801-induced memory/learning dysfunctions; test: Step-through passive avoidance response test, MK-801-induced memory/learning dysfunctions; format: in vivo, Wistar male rats
Description: Wistar male rats (7 weeks old) were used. […] Serotonin 5-HT 1A receptor antagonist WAY-100635 or noradrenaline a2 receptor antagonist 1-PP was dissolved in a physiological saline solution (Otsuka Pharmaceutical Co., Ltd.) and used as a test compound. As an NMDA type receptor antagonist, MK-801 hydrogen maleate (SIGMA-ALDRICH M-107) was dissolved in a physiological saline solution (Otsuka Pharmaceutical Co., Ltd.). […] For the evaluation of state-dependency of MC-801, MK-801 was administered before the training session, and a physiological saline solution was administered before the testing session instead. The dosing value thereof was 5 ml/kg for each.
The step-through type passive avoidance response test was carried out in the following manners with the use of an apparatus consisting of a light-dark box, a slide door dividing the light-dark box and a shock generator (manufactured by O'hara & Co., Ltd., PA-2030A, PA-3001A) as an experimental apparatus. Namely, on Day 1 of the experiment, after a test compound and MK-801 were administered, the rats were put into the light box of the experimental apparatus where the back of each rat was directed to the dark box. Then, 10 seconds later, a slide door set at the border between the dark box and the light box was opened. Due to the habits of the rats, once the rats entered into the dark box, the slide door was quickly closed. At three seconds after entering into the dark box, an electroconvulsive shock ([…], for 3 seconds) was given to the rats. The period between the time just after the slide door was opened and the time at which the rats entered into the dark box was measured as a step-through latency. […] On Day 2 of the experiment, the testing session was carried out about 24 hours after the training session. Thirty minutes prior to the testing session, MK-801 or a vehicle thereof, i.e., a physiological saline solution, was subcutaneously administered to the rats. The procedures of the testing session were carried out in the same manner to the training session except that no electroconvulsive shock was given. The step-through latency at the testing session was measured up to 300 seconds, and the step-through latency over 300 seconds was regarded as 300 seconds. […] The statistical analysis of the % of animals avoiding was done by x^2 test with Bonferroni's correction. The animals were used in a group of 10 to 25 animals per group, and the data was expressed by percentage.

[3] = system: methamphetamine-induced hyperponesis; settings: rats; reflects anti-psychotic activity; cited from earlier work
[4] = MK-801 administered in both training and testing sessions
[5] = MK-801 prior to both training and testing sessions, MK-801 + drug 0.1 mg/kg p.o.
[6] = MK-801 prior to both training and testing sessions, MK-801 + drug 0.3 mg/kg p.o.
[7] = MK-801 prior to both training and testing sessions, MK-801 + drug 1 mg/kg p.o.
[8] = MK-801 prior to both training and testing sessions, MK-801 + drug 3 mg/kg p.o.
[9] = MK-801 prior to both training and testing sessions, MK-801 + drug 10 mg/kg p.o.
[10] = MK-801 administered only in the training session
[11] = MK-801 prior to training session only, MK-801 + drug 3 mg/kg p.o.

Row | SMILES | Minimum dose to induce memory dysfunction by single application [1] | drug efficacy on memory dysfunction (in words) [2, 4] | % of animals avoiding [2, 6] | % of animals avoiding [2, 7] | % of animals avoiding [2, 8] | % of animals avoiding [2, 9] | other results
1 | Cc1nc2n(c(=O)c1CCN1CCC(c3noc4cc(F)ccc34)CC1)CCCC2 [Risperidone, risperidone] | 3 mg/kg, p.o | memory/learning improving efficacy is recognized | 20% | 28% | 10% |  | % of animals avoiding [2, 5]: 20%
2 | COc1ccccc1N1CCN(CCN(C(=O)C2CCCCC2)c2ccccn2)CC1 [WAY-1000635] |  |  | 30% | 40* % | 30% |  | drug efficacy on memory dysfunction (in words) ([2]; MK-801 administered in both training and testing sessions, listed as WAY-100635): a significant improving activity was observed; drug efficacy on memory dysfunction (in words) ([2]; MK-801 administered in both training and testing sessions, listed as serotonin 5-HT 1A receptor antagonist): memory/learning improving efficacy is recognized
3 | OCCOCCN1CCN(C2=Nc3ccccc3Sc3ccccc32)CC1 [Quetiapine, quetiapine] | 30 mg/kg, p.o | memory/learning improving efficacy is recognized; also recorded: a significant improving activity was observed | 10% | 20% | 30% | 50* % | dose to inhibit 50% of methamphetamine-induced hyperponesis (ED50) [3]: about 100 mg/kg, p.o.
4 | Cl.Cl.c1cnc(N2CCNCC2)nc1 [1-PP, 1-(2-pyrimidyl)piperazine dihydrochloride] |  |  |  | 47* % | 67* % |  | drug efficacy on memory dysfunction (in words) ([2]; MK-801 administered in both training and testing sessions, dihydrochloride): memory/learning improving efficacy is recognized; also recorded: a significant improving activity was observed; drug efficacy on memory dysfunction (in words) [2, 10]: no drug efficacy; % of animals avoiding [2, 11]: 8%
5 | C[C@]12N[C@H](Cc3ccccc31)c1ccccc12 [MK-801] |  |  |  |  |  |  | % of animals avoiding, group treated with MK-801 ([2]; MK-801 0.05 mg/kg s.c. alone, administered prior to training session only): 0%; step-through latency (in words) ([2]; MK-801 before training session and saline before testing session, compared with MK-801 in both sessions): nearly equal decrease in the step-through latency
6 | CN1CCN(C2=Nc3cc(Cl)ccc3Nc3ccccc32)CC1 [Clozapine, clozapine] | 10 mg/kg, p.o |  | 44* % | 36* % | 20% | 10% | 
7 | O=C1[C@@H]2[C@H]3CC[C@H](C3)[C@@H]2C(=O)N1C[C@@H]1CCCC[C@H]1CN1CCN(c2nsc3ccccc23)CC1 [Lurasidone, lurasidone] | >30 mg/kg, p.o | memory/learning improving efficacy is recognized; also recorded: a significant improving activity was observed | 40* % | 35* % | 75* % | 70* % | drug efficacy on memory dysfunction (in words) [2, 10]: no drug efficacy; % of animals avoiding ([2]; MK-801 prior to training session only, MK-801 + drug 0.3 mg/kg p.o.): 20%; % of animals avoiding ([2]; MK-801 prior to training session only, MK-801 + drug 1 mg/kg p.o.): 20%; % of animals avoiding [2, 11]: 30%; % of animals avoiding ([2]; MK-801 prior to training session only, MK-801 + drug 10 mg/kg p.o.): 20%
8 | Cc1cc2c(s1)Nc1ccccc1N=C2N1CCN(C)CC1 [Olanzapine, olanzapine] |  |  | 15% | 20% | 20% | 10% | 
9 | O=C1CCc2ccc(OCCCCN3CCN(c4cccc(Cl)c4Cl)CC3)cc2N1 [Aripiprazole, aripiprazole] | 10 mg/kg, p.o | no drug efficacy was observed |  | 16% | 16% |  | 
10 | O=C(CCCN1CCC(O)(c2ccc(Cl)cc2)CC1)c1ccc(F)cc1 [Haloperidol] | 10 mg/kg, p.o | no drug efficacy was observed | 5% | 15% | 10% |  | % of animals avoiding [2, 5]: 0%
